Assay type in all cases: cell-based
The test system of assay [1] is U-251 CNS cancer cell line. As to the kind of experiment: NCI in vitro screen, CNS cancer U-251. The following applies: Homo sapiens, read-out: Cytotoxicity log GI50 (converted).
For assay [2], the system named is SF-295 CNS cancer cell line. Kind of assay: NCI in vitro screen, CNS cancer SF-295. The following applies: Homo sapiens, read-out: Cytotoxicity log GI50 (converted).
Assay [3] has as its system MDA-MB-435 breast cancer cell line. As to the kind of experiment: NCI in vitro screen, breast cancer MDA-MB-435. The following applies: Homo sapiens, read-out: Cytotoxicity log GI50 (converted).
Assay [4] relates to NCI's 60 human tumor cell line. As to the kind of experiment: NCI 60 human tumor cell line in vitro screen (average / whole panel). The note with it: calculated from all cell lines tested, molar concentrations, read-out: average log GI50 (converted).
The test system of assay [5] is MDA-N breast cancer cell line. Kind of assay: NCI in vitro screen, breast cancer MDA-N. The note with it: Homo sapiens, read-out: Cytotoxicity log GI50 (converted). The source says:
(§1) Compounds 41-51 and 53-68 were submitted to NCI and assayed in the NCI's in vitro disease-oriented antitumor screen, which involves determination of a test compound's effects on the growth of approximately 60 human tumor cell lines. See, M. R. Boyd, et al. In Cancer: Principles and Practice of Oncology Updates; De Vita, V. T., Hellman, S., Rosenberg, S. A., Eds; J. B. Lippincoft: Philadelphia, pp 1-12 (1989); and A. Monks, et al. J. Natl. Cancer Inst. 83:757 (1991). These lines include leukemia, non-small cell lung, colon, central nervous system (CNS), melanoma, ovarian, renal, prostate, and breast cancers.
(§2) Compounds 29'-51' were submitted to NCI and assayed in the NCI's in vitro disease-oriented antitumor screen, using the techniques described in Example 5. This assay involves determinations of a test agent's effect on growth parameters against a panel of approximately 60 human tumor cell lines, derived largely from solid tumors, including non-small cell lung, colon, central nervous system, renal, ovarian, prostate, and breast cancers, plus a few leukemia cell lines. The cytotoxic effects of each compound are obtained as GI50 or […] values, which represent the molar drug concentrations required to cause half growth inhibition and total growth inhibition, respectively. The results are expressed for each cell line as average log GI50 values in Table 4, as log GI50 values in Table 5, and as log TGI values and average log TGI values in Table 6.

Assay [6] has as its system 786-0 renal cancer cell line. Kind of assay: NCI in vitro screen, renal cancer 786-0. The note with it: Homo sapiens, read-out: Cytotoxicity log GI50 (converted).
Text: as §1, §2

Assay [7] relates to SK-MEL-5 melanoma cell line. As to the kind of experiment: NCI in vitro screen, melanoma SK-MEL-5. The following applies: Homo sapiens, read-out: Cytotoxicity log GI50 (converted).
Text: as §1, §2

Assay [8] deals with NCI-H460 non-small cell lung cancer cell line. Kind of assay: NCI in vitro screen, non-small cell lung cancer NCI-H460. The following applies: Homo sapiens, read-out: Cytotoxicity log GI50 (converted).
In assay [9] the test system is PC-3 prostate cancer cell line. Kind of assay: NCI in vitro screen, prostate cancer PC-3. The following applies: Homo sapiens, read-out: Cytotoxicity log GI50 (converted).
Text: as §1, §2

For assay [10], the system named is HL-60(TB) leukemia cell line. As to the kind of experiment: cells. The following applies: Homo sapiens; HL-60(TB); read-out: Cytotoxicity log GI50 (converted).
For assay [11], the system named is HCT-116 colon cancer cell line. As to the kind of experiment: NCI in vitro screen, colon cancer HCT-116. The following applies: Homo sapiens; HCT-1.16 (head); HCT-116 (footnote); read-out: Cytotoxicity log GI50 (converted).
The subject of assay [12] is OVCAR-3 ovarian cancer cell line. Kind of assay: NCI in vitro screen, ovarian cancer OVCAR-3. The note with it: Homo sapiens, read-out: Cytotoxicity log GI50 (converted).

What is called GI50 is the concentration giving 50% growth inhibition. Consider `COc1cccc(-c2cc(=O)c3c(C)ccnc3[nH]2)c1` [Compound 45], for which the concentration for 50% growth inhibition (GI50) is 58.9 nM in assay [1]; 28.8 nM in assay [2]; < 10 nM in [3]; 58.9 nM in assay [4]; < 10 nM in assay [5]; 51.3 nM in assay [6]. Moreover, the GI50 in assay [7] was 22.4 nM; in [8], 47.9 nM; in assay [9], 26.3 nM; in assay [10] it was 12.9 nM; in assay [11], 44.7 nM; in assay [12], 25.7 nM.

On to `Cc1cc(C)c2c(n1)N=C(c1cccc3ccccc13)CC2=O` [Compound 46, 2-(α-Naphthyl)-5,7-dimethyl-1,8-naphthyridin-4-one], for which the 50% growth inhibitory concentration (GI50) in assay [1] was 372 nM; in [2], 589 nM; in assay [3], 191 nM; in [4], 1050 nM; in [5], 234 nM; in [6], 9550 nM. The 50% growth inhibitory concentration (GI50) in assay [7] is 468 nM; in [8] it was 631 nM; in assay [9] it was 759 nM; in [10], 245 nM; in assay [11], 380 nM; in assay [12] it was 347 nM.

On to `O=C1CC(c2ccc3ccccc3c2)=Nc2ncccc21` [Compound 47, 2-(β-Naphthyl)-1,8-naphthyridin-4-one], for which the GI50 in [1] was 4370 nM; in assay [2] it was 9120 nM; in assay [3], 1780 nM; in assay [4] it was 8130 nM; in assay [5] it was 1660 nM; in [6], 5620 nM. Further, the GI50 in assay [7] is 3470 nM; in assay [8], 3800 nM; in assay [9], 10500 nM; in [10] it was 1820 nM; in [11], 3800 nM; in assay [12], 8320 nM.

As for `Cc1ccnc2c1C(=O)CC(c1ccc3ccccc3c1)=N2` [Compound 48, 2-(β-Naphthyl)-5-methyl-1,8-naphthyridin-4-one], the concentration for 50% growth inhibition (GI50) in [1] is 646 nM; in assay [2] it was 1480 nM; in assay [3], 204 nM; in assay [4], 1200 nM; in assay [5], 204 nM; in assay [6], 2400 nM. Besides, the 50% growth inhibitory concentration (GI50) in assay [7] is 437 nM; in [8] it was 1120 nM; in [9], 1380 nM; in [10], 204 nM; in assay [11] it was 427 nM; in [12], 1290 nM.

In the case of `COc1cccc(-c2cc(=O)c3c(C)cc(C)nc3[nH]2)c1` [Compound 48], the GI50 was 170 nM in assay [1]; 417 nM in assay [2]; < 10 nM in assay [3]; 646 nM in assay [4]; < 10 nM in assay [5]; 437 nM in assay [6]. Further, the GI50 is 288 nM in assay [7]; 447 nM in [8]; 309 nM in assay [9]; 174 nM in assay [10]; 407 nM in assay [11]; 251 nM in [12].

With `Cc1cnc2c(c1)C(=O)CC(c1ccc3ccccc3c1)=N2` [Compound 49, 2-(β-Naphthyl)-6-methyl-1,8-naphthyridin-4-one], the GI50 in [1] is 468 nM; in assay [2], 550 nM; in [3] it was 105 nM; in [4] it was 741 nM; in [5], 132 nM; in assay [6], 617 nM. In addition, the GI50 in assay [7] is 363 nM; in assay [8] it was 398 nM; in [9], 407 nM; in assay [10], 141 nM; in assay [11], 468 nM; in assay [12], 355 nM.

`Cc1ccc2c(n1)N=C(c1ccc3ccccc3c1)CC2=O` [Compound 50, 2-(β-Naphthyl)-7-methyl-1,8-naphthyridin-4-one]: the concentration for 50% growth inhibition (GI50) in assay [1] was 4570 nM; in [2] it was 3800 nM; in [3], 1580 nM; in [4] it was 4570 nM; in assay [5], 1950 nM; in assay [6], 5370 nM. Further, the 50% growth inhibitory concentration (GI50) in assay [7] was 3310 nM; in assay [8] it was 3800 nM; in [9] it was 2630 nM; in [10] it was 1780 nM; in [11], 3980 nM; in assay [12], 3630 nM.

These data come from US6229016A, “Method for treating tumors using 2-aryl-naphthyridin-4-ones” (priority 2000, dated 2001).
